The values that follow come from patent publication US20230145555A1 (priority 2020, published 2023).

Data set [1] relates to K18-hACE2 transgenic mouse. In kind it is in vivo. The settings on record: after 7 days.
Data set [2] relates to SARS-CoV-2. The data set is described as follows: Proof of concept study: time to negative SARS-CoV-2 test in asymptomatic positive patients. In kind it is in vivo, human. The conditions noted are these: resveratrol alone by nasal and throat spray and/or inhalation, 6.0 mg per day for 2 weeks; 40 patients. An excerpt: About 100 adult asymptomatic patients, which are positive for SARS-CoV-2, are included in the study after a confirmatory test. […] Subsequently, the patients have a daily SARS-CoV-2 tests until day 7 and then at End of Treatment day 14.

The subject of data set [3] is NLRP3 inflammasome. The conditions noted are these: macrophages; cited from earlier work.
The conditions of data set [4]: cited from earlier work.
The mark [5] stands for this setting: RSV 30 mg in food (aqueous phospholipid formulation).
Setting [6] is: RSV 45 mg in food (aqueous phospholipid formulation).
[7] abbreviates: RSV 60 mg in food (aqueous phospholipid formulation).

Molecules are shown by their SMILES. Read-outs that look alike come from different tables or passages of the source.

In the case of `Oc1ccc(/C=C/c2cc(O)cc(O)c2)cc1` [RSV, resveratrol], the “Survival Rate [%]” value stood at 37.5% in data set [1] (setting [5]), 50% in data set [1] (setting [6]) and 62.5% in data set [1] (setting [7]). The entries for the “Survival Rate n/8” value in data set [1] (setting [5]), in data set [1] (setting [6]) and in data set [1] (setting [7]) were 3 n/8, 4 n/8 and 5 n/8, respectively. The “time to negative SARS-CoV-2 test compared to patients without treatment” value in data set [2] is on record as “significantly earlier”. Also, the “NLRP3 inflammasome-derived IL-1β secretion and pyroptosis” value in data set [3] is on record as “inhibits”. Moreover, in data set [4], the solubility in water result is “almost insoluble”.
